Key:
[1] = system: H5N1 influenza virus strain A/Egypt/M7217B/2013; assay: microbe, parasite or virus in culture; assay type: cell-based, influenza A virus (subtype H5N1); conditions: for inhibition at 125 µM / inhibition at 250 µM: MDCK, read-out: inhibition % (plaque reduction assay)
[2] = system: Madin–Darby canine kidney (MDCK) cells; conditions: dog

SMILES | viral count (plaque reduction assay) [1] | inhibition at 125 µM [1] | inhibition at 250 µM [1] | MTT assay LD50 [2] | therapeutic index (qualitative, plaque reduction assay) [1] | safety for healthy cells judged from LD50 values (NCI and GERAN protocol) [2]
CSC(NC(=O)c1ccccc1)=C(C#N)C#N [3a, N-(2,2-Dicyano-1-(methylthio)vinyl)benzamide] | 5.0 × 10^6 4.0 × 10^6 PFU/mL | 16.7% | 33.3% | 200 µmol/mL | – | –
CCSC(NC(=O)c1ccccc1)=C(C#N)C#N [3b, N-(2,2-Dicyano-1-(ethylthio)vinyl)benzamide] | 2.2 × 10^6 9.0 × 10^5 PFU/mL | 63.3% | 85% | 480 µmol/mL | higher therapeutic indices | safe for healthy cells
N#CC(C#N)=C(NC(=O)c1ccccc1)SCc1ccccc1 [3c, N-(1-(Benzylthio)-2,2-dicyanovinyl)benzamide] | 2.8 × 10^6 2.1 × 10^6 PFU/mL | 53.3% | 65% | 200 µmol/mL | – | –
N#Cc1nnc2c(C#N)c(NC(=O)c3ccccc3)nn2c1N [6a, N-(4-Amino-3,8-dicyanopyrazolo[5,1-c][1,2,4]triazin-7-yl)benzamide] | 4.0 × 10^6 3.0 × 10^6 PFU/mL | 33.3% | 50% | 200 µmol/mL | – | –
CCOc1c(C#N)nnc2c(C#N)c(NC(=O)c3ccccc3)nn12 [6b, N-(3,8-Dicyano-4-ethoxypyrazolo[5,1-c][1,2,4]triazin-7-yl)benzamide] | 3.0 × 10^6 3.2 × 10^6 PFU/mL | 50% | 46.7% | 100 µmol/mL | – | –
N#Cc1c(NC(=O)c2ccccc2)nn2c3c(cnc12)CCC3 [8a, N-(3-Cyano-7,8-dihydro-6H-cyclopenta[e]pyrazolo[1,5-a]pyrimidin-2-yl)benzamide] | 4.0 × 10^6 2.5 × 10^6 PFU/mL | 33.3% | 58.3% | 170 µmol/mL | – | –
N#Cc1c(NC(=O)c2ccccc2)nn2c3c(cnc12)CCCC3 [8b, N-(3-Cyano-6,7,8,9-tetrahydrocyclohexa[e]pyrazolo[1,5-a]pyrimidin-2-yl)benzamide] | – | – | – | 210 µmol/mL | – | –
COc1ccc(-c2c(C#N)c(N)nc3c(C#N)c(NC(=O)c4ccccc4)nn23)cc1 [10b, N-(5-Amino-3,6-dicyano-7-(4-methoxyphenyl)pyrazolo[1,5-a]pyrimidin-2-yl)benzamide] | 1.0 × 10^6 b PFU/mL | – | – | 140 µmol/mL | higher therapeutic indices | –
N#Cc1c(N)nc2c(C#N)c(NC(=O)c3ccccc3)nn2c1-c1ccc(Cl)cc1 [10c, N-(5-Amino-7-(4-chlorophenyl)-3,6-dicyanopyrazolo[1,5-a]pyrimidin-2-yl)benzamide] | 4.0 × 10^6 2.0 × 10^6 PFU/mL | 33.3% | 66.7% | 120 µmol/mL | – | –
Cc1cc(C)n2nc(NC(=O)c3ccccc3)c(C#N)c2n1 [12a, N-(3-Cyano-5,7-dimethylpyrazolo[1,5-a]pyrimidin-2-yl)benzamide] | 4.6 × 10^6 2.0 × 10^6 PFU/mL | 23.3% | 66.7% | 210 µmol/mL | – | –
Cc1cc(O)n2nc(NC(=O)c3ccccc3)c(C#N)c2n1 [12b, N-(3-Cyano-7-hydroxy-5-methylpyrazolo[1,5-a]pyrimidin-2-yl)benzamide] | 5.0 × 10^6 4.0 × 10^6 PFU/mL | 16.7% | 33.3% | 190 µmol/mL | – | –
CC(=O)OC[C@H]1O[C@@H](SC(NC(=O)c2ccccc2)=C(C#N)C#N)[C@H](OC(C)=O)[C@H](OC(C)=O)[C@H]1OC(C)=O [21a, (2R,3S,4R,5R,6S)-2-(Acetoxymethyl)-6-((1-benzamido-2,2-dicyanovinyl)thio)tetrahydro-2H-pyran-3,4,5-triyl triacetate] | 2.2 × 10^6 2.0 × 10^6 PFU/mL | 63.3% | 66.7% | 90 µmol/mL | – | –
CCOC(=O)/C(C#N)=C(\NC(=O)c1ccccc1)S[C@@H]1O[C@H](COC(C)=O)[C@H](OC(C)=O)[C@@H](OC(C)=O)[C@H]1OC(C)=O [21b, (2R,3S,4R,5R,6S)-2-(Acetoxymethyl)-6-(((E)-1-benzamido-2-cyano-3-ethoxy-3-oxoprop-1-en-1-yl)thio)tetrahydro-2H-pyran-3,4,5-triyl triacetate] | 3.5 × 10^6 2.0 × 10^6 PFU/mL | 41.7% | 66.7% | 210 µmol/mL | – | –
N#Cc1c(NC(=O)c2ccccc2)n[nH]c1N [compound 4, N-(5-Amino-4-cyano-1H-pyrazol-3-yl)benzamide] | 2.0 × 10^6 1.4 × 10^6 PFU/mL | 66.7% | 76.7% | 30 µmol/mL | higher therapeutic indices | –
CCOC(=O)/C(C#N)=C(\NC(=O)c1ccccc1)SC [compound 14, (E)-Ethyl 3-benzamido-2-cyano-3-(methylthio)acrylate] | 5.0 × 10^6 5.0 × 10^6 PFU/mL | 16.7% | 16.7% | 130 µmol/mL | – | –
CCOc1n[nH]c(-c2ccccc2)n1 [compound 19, 3-Ethoxy-5-phenyl-1H-1,2,4-triazole] | 2.2 × 10^6 2.0 × 10^6 PFU/mL | 63.3% | 66.7% | 230 µmol/mL | – | –
CC(=O)N[C@H]1[C@H]([C@H](O)[C@H](O)CO)OC(C(=O)O)=C[C@@H]1N=C(N)N [zanamivir, reference compound] | 5.0 × 10^4 1.1 × 10^4 PFU/mL | 99.2% | 99.8% | – | – | –

From paper PMC7542596 (ACS Omega, 2020)
